Laboratory results as given in patent publication US7692011B2, “8-hydroxy and 8-mercapto quinazolinones” (Prana Biotechnology Limited, priority 2002, dated 2010).

Assay: Assay 13 Blood brain barrier penetration (rat brain perfusion)
Format: in vivo
Details: 50 μM infusion, 1.5 minutes
Experimental: Assay 13. Blood Brain Barrier Penetration
The test compounds were dissolved in DMSO and phosphate buffered saline (PBS) was added to obtain solutions at a concentration of 50 μM in PBS containing 1.25-2.5% DMSO. A trace amount of ^14C-sucrose was added to each stock infusion solution (approx 0.01 μCi/mL) to act as Blood-Brain Barrier (BBB)-impermeable marker in order to assess the integrity of the BBB during each perfusion and to estimate the volume of the residual vascular space (RVS) in samples of brain tissue (ie: the volume of fluid remaining inside the lumen of blood vessels at the end of each perfusion). […]
After 1.5 minutes, the infusion pump automatically stopped, the cannula was withdrawn from the carotid artery and a sample of the infusion solution (1-1.5 mL) was then collected from the tip of the infusion cannula. […] The brain tissue samples from each animal were frozen at −30° C., homogenized and weighed aliquots analysed by LC-MS to give total brain concentration. […]
Small aliquots from each brain tissue sample and the corresponding infusion solution were analysed by liquid scintillation counting to determine the level of ^14C-sucrose. The residual vascular space (RVS) in each brain tissue sample was calculated by dividing the measured concentration of sucrose in brain tissue (dpm/mg) by its concentration in the corresponding infusion solution (dpm/μL). […]

Assay 13 Rat brain perfusion (brain uptake ratio): >50%
Structure (SMILES): O=c1c2c(Cl)cc(Cl)c(O)c2ncn1C1CC1 [PBT-1061, 5,7-Dichloro-3-cyclopropyl-8-hydroxy-3H-quinazolin-4-one]
